The values that follow come from patent US11485728B2, “Small molecules for the treatment of autoimmune diseases and cancer” (Athos Therapeutics, Inc., priority 2020, dated 2022).

The subject of one data set is HCT-116. Description: HCT-116 cell viability (Real-Time-Glo). It counts as cell-based. The settings on record: Homo sapiens, 72 hr, read-out: IC50, Cell line: HCT-116. As for the experimental part: To determine the plating density for cell viability assays, for each cell line, cells were counted and diluted to final densities of 2.5, 5, 10 and 20 thousand per 100 μl of their respective growth media per well in 96 well plates. A Promega Real-Time-Glo cell viability kit was used to determine the optimal concentration for cell plating so that each cell line would be within the linear part of its growth curve after 72 hrs in culture. […] Test compounds were then added at different concentrations for the creation of six-point curve and cell density was determined using the Promega Real-Time-Glo cell viability kit after 24, 48, and 72 hrs in culture.

Data set [1] is described as follows: In-vitro half-life in mouse liver microsomes. It counts as in vitro ADME. The settings on record: Mouse liver microsomes 0.5 mg/mL; 1 μg/mL drug; NRS; read-out: Metabolic Half-life. The protocol:
In each of the species (human, rat, mouse) of liver matrix to be tested, a working concentration of 2 μg/mL was prepared of each test article from the 0.5 mg/mL DMSO stock solution by adding 3 μL of 0.5 mg/mL test article stock solution to 747 μL of the 1 mg/mL liver matrix. Incubation was performed at 37±2° C. with gentle, continuous mixing in shaking water bath in 2.0 mL-well capacity 96-Deepwell plates (96-DWP). Samples were retrieved in duplicate at the following time points: 0, 5, 10, 15, 30 and 60 minutes. The final mixture contained 1 μg/mL of drug and 0.5 mg/mL of liver matrix. First, 50 μL of test articles in liver matrix was added to the 96-DWP and pre-warmed the mixture in the 96-DWP for 2 minutes in the 37° C. water bath. The enzymatic reaction was started by the addition of 50 μL of the corresponding 2× NADPH regenerating system (NRS) cofactor solution to all sample wells and stopped by the addition of 300 μL of stop solution (acetonitrile containing 10 ng/mL Tolbutamide as an internal standard (I.Std.). The samples were agitated for 10 minutes and then centrifuged for 20 minutes at 4500 rpm. 25 μL of supernatant was diluted with 475 μL acetonitrile containing I. Std. into a new 96-DWPs for LC-MS/MS analysis.
Half-life calculations were generated and calculated by Graphpad Prism® software. The half-life of test compound was calculated based on the first-order reaction kinetics. The data was transformed to linear regression (y=log(y) where “y” axis represents the % compound remaining at any given time with respect to time 0 minutes; “x” axis represents time in minutes) in order to calculate the half-life.
A comparison of metabolic stability in time-course incubation experiments in varying species of liver can provide information of pharmacokinetic properties of drugs attributable to species-related differences in hepatic metabolism. The results of these experiments often assist in further applications such as assessing in vitro metabolite profiling and choosing relevant species for toxicology studies based on similarities relative to the metabolic stability to the human profile. For these experiments, the test compound was tested in parallel with a positive control, Dasatinab, in an enzymatic reaction solution of each species (human and rat) of liver microsomes containing a NADPH regenerating system (NRS). The final mixture contained 1 μg/mL of drug and 0.5 mg/mL of liver matrix. Incubations were performed at 37±2° C. with gentle, continuous mixing in shaking water bath in 96-Deep well plates. The stability of the test compound is monitored using fast, specific and sensitive LC/MS/MS analysis.

The target of a further data set is T1, CYP2C9 (Homo sapiens, UniProt P11712).
T1 construct: from tissue; host or cells: pooled human liver microsomes
T1 sequence (P11712 whole entry): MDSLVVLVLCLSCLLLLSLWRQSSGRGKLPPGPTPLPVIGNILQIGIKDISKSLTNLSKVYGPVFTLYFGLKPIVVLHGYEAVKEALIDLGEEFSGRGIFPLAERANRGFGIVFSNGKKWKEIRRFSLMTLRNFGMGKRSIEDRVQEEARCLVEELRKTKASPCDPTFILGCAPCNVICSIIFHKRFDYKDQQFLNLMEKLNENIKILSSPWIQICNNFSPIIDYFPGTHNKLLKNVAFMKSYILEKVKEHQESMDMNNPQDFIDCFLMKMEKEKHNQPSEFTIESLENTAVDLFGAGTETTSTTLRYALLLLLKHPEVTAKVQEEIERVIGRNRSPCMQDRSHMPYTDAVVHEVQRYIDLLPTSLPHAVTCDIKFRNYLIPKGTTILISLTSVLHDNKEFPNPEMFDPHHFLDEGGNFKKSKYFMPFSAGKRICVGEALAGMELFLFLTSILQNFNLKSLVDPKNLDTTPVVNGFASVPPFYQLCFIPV
Kind of data set: CYP-direct inhibition, CYP2C9. It counts as in vitro ADME. As for the experimental part:
(§1) Many drugs inhibit cytochrome P450 enzymes to cause clinically significant changes in the pharmacokinetics of other drugs. In vitro cytochrome P450 inhibition, can provide crucial information in evaluating potential clinical drug-drug interactions and is useful for focusing in vivo tests to areas of concern. The cytochrome P450 inhibition assay was developed by preparing a working cocktail solution consisting of six probe substrates 10 μM ethoxy-resorufin (CYP1A2), 100 μM rosiglitazone (CYP2C8), 50 μM diclofenac (CYP2C9), 300 μM S-mephenytoin (CYP2C19), 50 μM dextromethorphan (CYP2D6), and 20 μM midazolam (CYP3A4). A mixture solution consists of 140 uL of 0.286 mg/mL of pooled human liver microsome working solution and 20 uL working solutions of test articles, standard control inhibitors, or positive control placebo and 20 uL of substrate cocktail mixture working solution was prepared. The mixture solution was pre-warm in a gentle shaking bath at 37±2° C. for 5 minutes. The enzymatic reaction started by adding 20 uL of NRS working solution to the mixture solution and incubated for 10 minutes at 37±2° C. To stop the reaction, an addition of 400 μL cold stop solution (acetonitrile containing 50 ng/mL Tolbutamide as an internal standard (I.Std.) was added to the mixture solution. The final concentration of test article, inhibitors, substrates, and cofactors are noted in Table 0.1 below. Two individual samples were prepared for each test compound. The extracted samples were vortexed and then centrifuged at 4500 rpm for 7 minutes using Eppendorf Centrifuge 5910R. 200 uL of supernatant was diluting with 200 uL of 50% Methanol into 96-DW plate for LC/MS/MS analysis
(§2) Concentration-response plots are used to determine the effects of an inhibitor on an enzymatic reaction. A typical concentration-response plot provides fractional activity (Y axis) is plotted as a function of log inhibitor concentration (X axis). The data are fitted using a standard Sigmoidal dose-response equation which is also called a […] logistic equation. The concentration of compound that results in 50% inhibition of maximal activity is termed as the IC50 (inhibitor concentration yielding 50% inhibition). IC50 value is calculated using Prism GraphPad software, version 9. […].
(§3) Cytochrome P450 inhibition of a drug is a key factor in determining pharmacokinetic drug-drug interactions. The objective of this study was to evaluate the inhibition potential of G9a inhibitors on six (6) major human cytochrome P450 enzymes, including CYP1A2, CYP2C8, CYP2C9, CYP2C19, CYP2D6, and CYP3A4. Inhibition was determined by using a substrate cocktail and analyzing the rate of specific metabolites formation. The cytochrome P450 inhibition assay was developed using a cocktail consisting of six (6) probe substrates ethoxy-resorufin (CYP1A2), rosiglitazone (CYP2C8), diclofenac (CYP2C9), S-mephenytoin (CYP2C19), dextromethorphan (CYP2D6), and midazolam (CYP3A4). The cocktail was incubated in human liver microsome with NADPH regenerating system (NRS) in a shaking bath at 37±2° C. The formation of specific metabolites was monitored by LC/MS/MS. Test compound was added to the cocktail-liver microsome mixture at varying concentrations and its effect on cytochrome P450 activity was determined by analyzing the rate of specific metabolite formation. The percent inhibition was calculated and plotted with reference to the concentration, and the IC50 value for inhibition was derived by fitting the data with a using log(inhibitor) vs. normalized response with variable slope least squares fit by Graphpad Prism® software. […].

A further data set deals with T2, CYP2C19 (Homo sapiens, UniProt P33261).
T2 construct: from tissue; host or cells: pooled human liver microsomes
T2 sequence (P33261 whole entry): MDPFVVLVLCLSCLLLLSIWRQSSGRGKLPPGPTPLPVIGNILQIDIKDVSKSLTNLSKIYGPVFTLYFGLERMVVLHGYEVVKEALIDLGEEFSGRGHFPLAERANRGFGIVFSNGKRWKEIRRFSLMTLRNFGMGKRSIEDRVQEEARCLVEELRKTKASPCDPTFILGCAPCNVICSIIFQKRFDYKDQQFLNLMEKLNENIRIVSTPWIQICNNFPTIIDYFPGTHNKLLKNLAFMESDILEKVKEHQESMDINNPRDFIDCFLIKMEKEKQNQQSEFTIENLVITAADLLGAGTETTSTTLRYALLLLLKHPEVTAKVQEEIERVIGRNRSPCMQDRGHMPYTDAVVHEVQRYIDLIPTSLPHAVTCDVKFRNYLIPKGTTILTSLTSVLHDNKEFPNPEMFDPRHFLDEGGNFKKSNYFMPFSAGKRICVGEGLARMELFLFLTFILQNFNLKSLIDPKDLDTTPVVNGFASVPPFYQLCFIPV
Description: CYP-direct inhibition, CYP2C19. It counts as in vitro ADME. As for the experimental part: as §1, §2, §3

What is called IC50 is the concentration that inhibits the measured activity by half. A word on the half-life: it is how long it takes for the measured level to halve.

In the case of `COCCN1CCC(Nc2nc(N3CCC(F)(F)CC3)nc3cc(OCCCN4CCCC4)c(OC)cc23)CC1` [Compound 3, 2-(4,4-difluoropiperidin-1-yl)-6-methoxy-N-(1-(2-methoxyethyl)piperidin-4-yl)-7-(3-(pyrrolidin-1-yl)propoxy)quinazolin-4-amine], the values for the IC50 in the data set on HCT-116, on CYP2C9 and at CYP2C19 were 1 to 5 µM, > 100 µM and > 100 µM, respectively. Besides, the half-life at 1 μg/mL in data set [1] was > 60 min.

With `COCCNc1nc(N2CCC(F)(F)CC2)nc2cc(OCCCN3CCCC3)c(OC)cc12` [Compound 4, 2-(4,4-difluoropiperidin-1-yl)-6-methoxy-N-(2-methoxyethyl)-7-(3-(pyrrolidin-1-yl)propoxy)quinazolin-4-amine], the half-inhibitory concentration (IC50) in the data set with HCT-116 was 1 to 5 µM; at CYP2C9, > 100 µM; against CYP2C19, 60.9 µM. The half-life at 1 μg/mL in data set [1] was > 60 min.

Regarding `COc1cc2c(Nc3ccncc3)nc(N3CCC(F)(F)CC3)nc2cc1OCCCN1CCCC1` [Compound 7, 2-(4,4-difluoropiperidin-1-yl)-6-methoxy-N-(pyridin-4-yl)-7-(3-(pyrrolidin-1-yl)propoxy)quinazolin-4-amine], the half-maximal inhibitory concentration (IC50) is 1 to 5 µM in the data set with HCT-116, > 100 µM at CYP2C9 and 44.3 µM at CYP2C19. In addition, in data set [1], the half-life at 1 μg/mL came to 43.6 min.

Turning to `COc1cc2c(NC3CCOCC3)nc(N3CCOCC3)nc2cc1OCCCN1CCCC1` [Compound 195, 6-methoxy-2-morpholino-7-(3-(pyrrolidin-1-yl)propoxy)-N-(tetrahydro-2H-pyran-4-yl)quinazolin-4-amine], the half-life at 1 μg/mL in data set [1] is > 60 min. Also, the half-inhibitory concentration (IC50) at CYP2C9 and on CYP2C19 was > 100 µM each time.

Consider `COc1cc2c(NC3CCOCC3)nc(N3CCS(=O)(=O)CC3)nc2cc1OCCCN1CCCC1` [Compound 196, 4-(6-methoxy-7-(3-(pyrrolidin-1-yl)propoxy)-4-((tetrahydro-2H-pyran-4-yl)amino)quinazolin-2-yl)thiomorpholine 1,1-dioxide], for which, in data set [1], the half-life at 1 μg/mL was > 60 min. The IC50 against CYP2C9 and against CYP2C19 was > 100 µM throughout.

On to `COc1cc2c(NC3CCOCC3)nc(N3CCN(C)CC3)nc2cc1OCCCN1CCCC1` [Compound 236, 6-methoxy-2-(4-methylpiperazin-1-yl)-7-(3-(pyrrolidin-1-yl)propoxy)-N-(tetrahydro-2H-pyran-4-yl)quinazolin-4-amine], for which the half-life at 1 μg/mL in data set [1] was 22.8 min. The IC50 against CYP2C9 and against CYP2C19 was > 100 µM each time.

`COc1cc2c(NC3CCOCC3)nc(N3CCCN(C)CC3)nc2cc1OCCCN1CCCC1` [Compound 237, 6-methoxy-2-(4-methyl-1,4-diazepan-1-yl)-7-(3-(pyrrolidin-1-yl)propoxy)-N-(tetrahydro-2H-pyran-4-yl)quinazolin-4-amine]: the half-life at 1 μg/mL in data set [1] worked out at 26.4 min. Moreover, the half-inhibitory concentration (IC50) against CYP2C9 and on CYP2C19 was > 100 µM each time.

Consider `COc1cc2c(NC3CCS(=O)(=O)CC3)nc(N3CCC(F)(F)CC3)nc2cc1C#CCN1CCCC1` [Compound 248, 4-((2-(4,4-difluoropiperidin-1-yl)-6-methoxy-7-(3-(pyrrolidin-1-yl)prop-1-yn-1-yl)quinazolin-4-yl)amino)tetrahydro-2H-thiopyran 1,1-dioxide], for which the half-life at 1 μg/mL in data set [1] was > 60 min. Further, the 50% inhibitory concentration (IC50) on CYP2C9 and against CYP2C19 was > 100 µM in each case.

In the case of `COc1cc2c(NC3CCN(C(C)C)CC3)nc(N3CCC(F)(F)CC3)nc2cc1OCCCN1CCCC1` [Compound 400, 2-(4,4-difluoropiperidin-1-yl)-N-(1-isopropylpiperidin-4-yl)-6-methoxy-7-(3-(pyrrolidin-1-yl)propoxy)quinazolin-4-amine, reference compound], in data set [1], the half-life at 1 μg/mL is > 60 min. Further, the half-maximal inhibitory concentration (IC50) on CYP2C9 and at CYP2C19 was > 100 µM throughout.
